From ChEMBL document CHEMBL3286163, “The pterocarpanquinone LQB-118 inhibits tumor cell proliferation by downregulation of c-Myc and cyclins D1 and B1 mRNA and upregulation of p21 cell cycle inhibitor expression” (Bioorg Med Chem, 2014) come the findings set out here.

Each structure is given as a SMILES string. In brackets after ≈: the same amount, converted by molar mass. Activity calls are given as the source filed them. The rule behind the calls is not given here.

Data set [1] relates to Thymocyte. Put plainly: Induction of apoptosis in mouse thymocytes assessed as internucleosomal DNA fragmentation at 1 uM after 24 hrs by agarose gel electrophoresis. It counts as functional, cell-based.
The subject of data set [2] is PC-3. Put plainly: Induction of apoptosis in human PC3 cells assessed as internucleosomal DNA fragmentation at 5 ug/ml after 48 hrs by agarose gel electrophoresis. It is filed as functional, cell-based.
Data set [3] relates to PC-3. Put plainly: Cell cycle arrest in human PC3 cells assessed as cell accumulation at G2/M phase at 5 ug/ml after 48 hrs by propidium idoide staining based flow cytometry (reference value: 22.2%). It is filed as functional. A general note: A flow cytometer gives signals particle by particle.
Data set [4] has as its system PC-3. Put plainly: Induction of apoptosis in human PC3 cells assessed as proportion of necrotic cells at 5 ug/ml after 48 hrs by annexin-V-FITC/propidium iodide staining based flow cytometry (reference value: 0.8 +/- 0.9%). It counts as functional.
Data set [5] relates to PC-3. Put plainly: Induction of apoptosis in human PC3 cells assessed as proportion of early apoptotic cells at 5 ug/ml after 48 hrs by annexin-V-FITC/propidium iodide staining based flow cytometry (reference value: 6.7 +/- 2%). It counts as functional.
Data set [6] concerns PC-3. Put plainly: Cell cycle arrest in human PC3 cells assessed as cell accumulation at S phase at 5 ug/ml after 48 hrs by propidium idoide staining based flow cytometry (reference value: 9.8%). It counts as functional.
The test system of data set [7] is LNCaP. Put plainly: Cytotoxicity against human LNCAP cells assessed as inhibition of cell viability after 48 hrs by MTT assay. It counts as functional, cell-based. For orientation: Tetrazolium dyes change colour on reduction, which living cells bring about.
Data set [8] concerns PC-3. Put plainly: Increase in p21 protein expression in human PC3 cells at 5 ug/ml after 48 hrs by flow cytometry. It counts as functional, cell-based.
Data set [9] concerns PC-3. Put plainly: Cytotoxicity against human PC3 cells assessed as inhibition of cell viability after 48 hrs by MTT assay. The settings on record: for IC50: PC-3, 48 h. It counts as functional, cell-based.
For data set [10], the system named is PC-3. Put plainly: Induction of apoptosis in human PC3 cells assessed as proportion of late apoptotic cells at 5 ug/ml after 48 hrs by annexin-V-FITC/propidium iodide staining based flow cytometry (reference value: 6.6 +/- 1.2%). It is filed as functional.
In data set [11] the test system is PC-3. Put plainly: Induction of apoptosis in human PC3 cells assessed as proportion of early apoptotic cells at 1.7 ug/ml after 48 hrs by annexin-V-FITC/propidium iodide staining based flow cytometry (reference value: 6.7 +/- 2%). It is filed as functional.
The subject of data set [12] is PC-3. Put plainly: Cell cycle arrest in human PC3 cells assessed as cell accumulation at G1 phase at 1.7 ug/ml after 48 hrs by propidium idoide staining based flow cytometry (reference value: 68%). It is filed as functional.
For data set [13], the system named is PC-3. Put plainly: Induction of apoptosis in human PC3 cells assessed as proportion of late apoptotic cells at 1.7 ug/ml after 48 hrs by annexin-V-FITC/propidium iodide staining based flow cytometry (reference value: 6.6 +/- 1.2%). It is filed as functional.
Data set [14] has as its system PC-3. Put plainly: Increase in c-Myc mRNA expression in human PC3 cells after 48 hrs by RT-PCR analysis. It is filed as functional.
Data set [15] deals with PC-3. Put plainly: Decrease in cyclin D1 mRNA expression in human PC3 cells after 48 hrs by RT-PCR analysis. It is filed as functional.
Data set [16] relates to PC-3. Put plainly: Cell cycle arrest in human PC3 cells assessed as cell accumulation at G1 phase at 5 ug/ml after 48 hrs by propidium idoide staining based flow cytometry (reference value: 68%). It is filed as functional.
In data set [17] the test system is PC-3. Put plainly: Decrease in cyclin B1 mRNA expression in human PC3 cells after 48 hrs by RT-PCR analysis. It counts as functional.
Data set [18] is described as follows: Cytotoxicity against human RWPE1 cells assessed as inhibition of cell viability after 48 hrs by MTT assay. It is filed as cell-based, RWPE-1. The note with it: for IC50: Homo sapiens, RWPE-1, 48 h.
Data set [19] has as its system PC-3. Put plainly: Increase in p21 mRNA expression in human PC3 cells at 5 ug/ml after 24 to 48 hrs by RT-PCR analysis. It counts as functional, cell-based.
For data set [20], the system named is PC-3. Put plainly: Cell cycle arrest in human PC3 cells assessed as cell accumulation at S phase at 1.7 ug/ml after 48 hrs by propidium idoide staining based flow cytometry (reference value: 9.8%). It is filed as functional.
Data set [21] deals with PC-3. Put plainly: Cell cycle arrest in human PC3 cells assessed as cell accumulation at G2/M phase at 1.7 ug/ml after 48 hrs by propidium idoide staining based flow cytometry (reference value: 22.2%). It is filed as functional.
Data set [22] has as its system PC-3. Put plainly: Induction of apoptosis in human PC3 cells assessed as proportion of necrotic cells at 1.7 ug/ml after 48 hrs by annexin-V-FITC/propidium iodide staining based flow cytometry (reference value: 0.8 +/- 0.9%). It is filed as functional.
In data set [23] the test system is PC-3. Put plainly: Cytotoxicity against human PC3 cells assessed as inhibition of cell viability at 10 ug/ml after 48 hrs by MTT assay. It counts as functional. The settings on record: PC-3, 48 h.
The test system of data set [24] is PC-3. Put plainly: Antiproliferative activity against human PC3 cells assessed as inhibition of cell growth at 1.7 ug/ml after 24 hrs by trypan blue dye exclusion assay. The note with it: PC-3, 24 h, read-out: GI. It is filed as functional.
Data set [25] concerns PC-3. Put plainly: Antiproliferative activity against human PC3 cells assessed as inhibition of cell growth at 1.7 ug/ml after 72 hrs by trypan blue dye exclusion assay. It is filed as functional. The settings on record: PC-3, 72 h, read-out: GI.
Data set [26] relates to PC-3. Put plainly: Increase in p21 protein expression in human PC3 cells at 5 ug/ml after 24 to 48 hrs by flow cytometry. It is filed as functional, cell-based.
Data set [27] concerns PC-3. Put plainly: Cytotoxicity against human PC3 cells assessed as inhibition of cell viability at 1 ug/ml after 48 hrs by MTT assay. It is filed as functional. The settings on record: PC-3, 48 h.
The subject of data set [28] is PC-3. Put plainly: Decrease in cyclin D1 mRNA expression in human PC3 cells after 24 hrs by RT-PCR analysis. It counts as functional.
For data set [29], the system named is PC-3. Put plainly: Antiproliferative activity against human PC3 cells assessed as inhibition of cell growth at 1.7 ug/ml after 48 hrs by trypan blue dye exclusion assay. It counts as functional. The settings on record: PC-3, 48 h, read-out: GI.
In data set [30] the test system is PC-3. Put plainly: Decrease in c-Myc mRNA expression in human PC3 cells after 48 hrs by RT-PCR analysis. It is filed as functional.
Data set [31] relates to PC-3. Put plainly: Antiproliferative activity against human PC3 cells assessed as inhibition of cell growth at 5 ug/ml after 48 hrs by trypan blue dye exclusion assay. It counts as functional. The settings on record: PC-3, 48 h, read-out: GI.
The test system of data set [32] is PC-3. Put plainly: Decrease in cyclin B1 mRNA expression in human PC3 cells after 24 hrs by RT-PCR analysis. It counts as functional.
The test system of data set [33] is PC-3. Put plainly: Antiproliferative activity against human PC3 cells assessed as inhibition of cell growth at 5 ug/ml after 24 hrs by trypan blue dye exclusion assay. It counts as functional. The note with it: PC-3, 24 h, read-out: GI.
A short description of data set [34]: Cytotoxicity against human RWPE1 cells assessed as inhibition of cell viability at 2.5 ug/ml after 48 hrs by MTT assay. It counts as cell-based. The note with it: rwpe-1, 48 h.
Data set [35] relates to PC-3. Put plainly: Antiproliferative activity against human PC3 cells assessed as inhibition of cell growth at 5 ug/ml after 72 hrs by trypan blue dye exclusion assay. It is filed as functional. The note with it: PC-3, 72 h, read-out: GI.

Regarding `C[C@@H]1C[C@H]2[C@@H]3CCC4=CC(=O)C=C[C@]4(C)[C@@]3(F)[C@@H](O)C[C@]2(C)[C@@]1(O)C(=O)CO`, the result in [1] was Active.
As a reminder, the IC50 is the point on the concentration scale where inhibition reaches its midpoint. Regarding `CC(=O)O[C@H]1C(=O)[C@@]2(C)[C@H]([C@H](OC(=O)c3ccccc3)[C@]3(O)C[C@H](OC(=O)[C@H](O)[C@@H](NC(=O)c4ccccc4)c4ccccc4)C(C)=C1C3(C)C)[C@]1(OC(C)=O)CO[C@@H]1C[C@@H]2O` [PACLITAXEL], the outcome in data set [2], in [8] and in data set [19] was Active. Also, the Activity in data set [3] was 79.2%; in data set [4] it was 1.9%; in data set [5], 18.1%; in [6] it was 5.8%; in [10] it was 18.4%; in data set [11], 21.1%. In addition, the Activity in data set [12] is listed as 25%; in data set [13], 14.7%; in data set [14] it was 39%; in data set [16], 15%; in data set [20] it was 13%; in data set [21], 62%. Also, the Activity in data set [22] turned out to be 0.6%. The IC50 in data set [7] was determined as 1.7 µg/mL (≈ 1.99 µM); in data set [9], 2.9 µg/mL (≈ 3.4 µM); in data set [18], 0.7 µg/mL (≈ 0.82 µM). Also, the “inhibition (INH)” value is listed as 48% in data set [15] and 44% in data set [17].
As a reminder, the inhibition is the percentage by which the read-out fell short of the control. Consider `O=C1C2=C(C(=O)c3ccccc31)[C@H]1Oc3ccccc3[C@H]1CO2` [PTEROCARPANQUINONE], for which the inhibition at 10 µg/mL in [23] came to 92.7%. The outcome in data set [2], in data set [26] and in [19] was Active. Besides, the Activity in [3] is recorded as 43.4%; in [4], 1.6%; in data set [5] it was 48.3%; in data set [6], 22.5%; in data set [10], 17.8%; in data set [11], 7.7%. The Activity in data set [12] was determined as 51.8%; in [13], 5.7%; in data set [16] it was 34.1%; in [20], 13.2%; in [21], 35%; in data set [22], 0.6%. In addition, in data set [34], the Activity result is recorded as “Non-toxic”. The inhibition of growth at 1.7 µg/mL in data set [24] worked out at 60%; in data set [25], 60%; in data set [29], 68%. Further, the inhibition at 1 µg/mL in [27] is 12.8%. The IC50 in data set [7] is 1.1 µg/mL (≈ 3.61 µM); in data set [9] it was 1.7 µg/mL (≈ 5.59 µM); in [18], 1.3 µg/mL (≈ 4.27 µM). In addition, the “inhibition (INH)” value in [28] is given as 27%; in data set [15], 59%; in data set [17], 43%; in data set [30], 60%; in [18] (human, rwpe-1, 48 h) it was “Dose-dependent effect”; in [32], 58%. Besides, the inhibition entry in data set [9] is “Dose-dependent effect”. Further, the values for the inhibition of growth at 5 µg/mL in data set [31], in data set [33] and in data set [35] were 88%, 78% and 93%, respectively.
